Experiments:
[1] = target: T1, Recombinant purified human BTK (Homo sapiens, UniProt Q06187); test: BTK kinase inhibitory activity, ADP-Glo kinase assay (Promega V9071); format: biochemical; settings: for inhibition at 1 µM: @1uM compound; for IC50: ATP 10 uM, 8 ng BTK per reaction, 1 hour 30 °C, chemiluminescence; for inhibition at 0.1 µM: @100nM compound
T1 construct: purchased Promega V9071
Procedure: (§1) JAK3 and BTK kinase inhibitory activities were measured for the compounds prepared in the above Examples through in vitro analysis on the ADP Glow (Glo) platform.
(§2) Specifically, the inhibitory activities of JAK3 and BTK kinase were measured using a JAK3 kinase assay kit (Promega, V9441) and a BTK kinase assay kit (Promega, V9071) which were purchased from Promega. Recombinant purified human JAK3 and BTK were diluted with 1 x kinase reaction buffer (JAK3: 40 mM Tris-Cl, pH 7.5, 20 mM MgCh, 0.1 mg/mL BSA and 50 uM DTT / BTK: 40 mM Tris-Cl, pH 7.5, 20 mM MgCl2, 0.1 mg/mL BSA, 2 mM MnCl2 and 50 uM DTT) and added to a 96 well plate (JAK3: final concentration of 4 ng per reaction/BTK: final concentration of 8 ng per reaction). The compounds were treated so as to be finally a 1% DMSO aqueous solution, and a substrate cocktail containing ATP (JAK3: final concentration of 5 uM / BTK: final concentration of 10 uM) and 0.2 µg/µL of Poly(Glu4, Tyr1) peptide (JAK3 and BTK final concentration) in the total 25 µL reactants was added to a 96-well plate to initiate enzymatic reaction. After incubation (30 °C) for 1 hour, equivalent volume (25 µL per reaction) of ADP Glo was added and incubated (30 °C) for 40 minutes at room temperature. Then, a kinase detection reagent (50 µL per reaction) was added and incubated (30 °C) for 30 minutes at room temperature. The kinase activity was measured by chemiluminescence according to the instructions of ADP Glo kinase assay kit, and the inhibitory activity of the compounds according to the present invention was calculated. For the analysis of the results of each compound, Microsoft Excel was used, and IC50 values were calculated by SigmaPlot software.

[2] = target: T2, Recombinant purified human JAK3 (Homo sapiens, UniProt P52333); test: JAK3 kinase inhibitory activity, ADP-Glo kinase assay (Promega V9441); format: biochemical; settings: for inhibition at 1 µM: @1uM compound; for inhibition at 1 µM / inhibition at 0.1 µM: printed in the JAK3 IC50 column; for IC50: ATP 5 uM, 4 ng JAK3 per reaction, 1 hour 30 °C, chemiluminescence; for inhibition at 0.1 µM: @100nM compound
T2 construct: purchased Promega V9441
T2 sequence (P52333 1-1124): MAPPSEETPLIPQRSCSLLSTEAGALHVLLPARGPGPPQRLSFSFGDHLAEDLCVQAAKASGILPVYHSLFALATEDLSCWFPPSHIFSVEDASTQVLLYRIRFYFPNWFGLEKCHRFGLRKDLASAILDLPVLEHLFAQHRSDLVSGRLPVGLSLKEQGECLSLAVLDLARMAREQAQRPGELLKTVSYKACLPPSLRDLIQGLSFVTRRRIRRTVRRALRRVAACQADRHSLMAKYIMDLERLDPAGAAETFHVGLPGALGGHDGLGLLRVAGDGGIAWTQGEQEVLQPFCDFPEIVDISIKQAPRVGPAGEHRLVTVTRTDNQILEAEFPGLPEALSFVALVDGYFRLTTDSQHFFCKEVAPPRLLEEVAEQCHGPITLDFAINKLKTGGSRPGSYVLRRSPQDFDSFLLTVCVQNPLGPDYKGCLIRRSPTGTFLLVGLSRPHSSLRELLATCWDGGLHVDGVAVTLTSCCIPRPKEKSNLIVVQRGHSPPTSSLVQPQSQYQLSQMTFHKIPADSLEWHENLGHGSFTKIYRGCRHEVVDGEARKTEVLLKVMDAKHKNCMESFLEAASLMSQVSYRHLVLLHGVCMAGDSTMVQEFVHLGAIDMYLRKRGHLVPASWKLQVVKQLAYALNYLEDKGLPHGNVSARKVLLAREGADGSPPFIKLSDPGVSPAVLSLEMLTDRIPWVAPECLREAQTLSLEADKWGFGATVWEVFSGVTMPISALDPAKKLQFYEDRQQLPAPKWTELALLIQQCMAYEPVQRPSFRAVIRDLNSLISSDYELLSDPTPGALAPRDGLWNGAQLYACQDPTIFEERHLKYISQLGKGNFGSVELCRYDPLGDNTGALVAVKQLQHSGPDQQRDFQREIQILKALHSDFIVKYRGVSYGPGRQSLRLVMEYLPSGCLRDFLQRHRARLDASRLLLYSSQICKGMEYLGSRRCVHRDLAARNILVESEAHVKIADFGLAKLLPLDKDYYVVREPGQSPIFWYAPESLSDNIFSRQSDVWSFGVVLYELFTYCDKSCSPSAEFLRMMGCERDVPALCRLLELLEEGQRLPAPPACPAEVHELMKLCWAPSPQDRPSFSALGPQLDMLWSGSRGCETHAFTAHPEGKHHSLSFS
Procedure: as §1, §2

T1 sequence (Q06187 whole entry): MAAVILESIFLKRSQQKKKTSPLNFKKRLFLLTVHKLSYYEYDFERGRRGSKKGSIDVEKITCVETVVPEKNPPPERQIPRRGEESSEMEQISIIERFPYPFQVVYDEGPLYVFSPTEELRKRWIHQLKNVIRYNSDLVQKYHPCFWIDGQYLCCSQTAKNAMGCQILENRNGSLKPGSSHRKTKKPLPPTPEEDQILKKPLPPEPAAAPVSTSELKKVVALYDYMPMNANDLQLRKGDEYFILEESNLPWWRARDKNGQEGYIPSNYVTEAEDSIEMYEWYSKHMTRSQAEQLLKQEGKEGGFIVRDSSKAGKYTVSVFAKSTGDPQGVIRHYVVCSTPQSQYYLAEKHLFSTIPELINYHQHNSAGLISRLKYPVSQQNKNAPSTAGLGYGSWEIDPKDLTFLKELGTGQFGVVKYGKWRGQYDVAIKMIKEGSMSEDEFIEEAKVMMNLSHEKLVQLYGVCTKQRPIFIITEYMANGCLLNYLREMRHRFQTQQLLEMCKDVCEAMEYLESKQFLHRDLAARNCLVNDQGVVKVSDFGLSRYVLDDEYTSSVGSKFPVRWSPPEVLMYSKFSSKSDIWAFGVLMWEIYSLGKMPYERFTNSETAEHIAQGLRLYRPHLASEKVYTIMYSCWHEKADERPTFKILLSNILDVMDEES

| Compound | IC50 [1] [nM] | IC50 [2] [nM] | further results |
| --- | --- | --- | --- |
| C=CC(=O)N1CCC[C@@H](Nc2nc(Nc3ccc(Oc4ccccc4)cc3)nc3[nH]ccc23)C1 [Example 13, (R)-1-(3-(2-(4-phenoxyphenylamino)-7H-pyrrolo[2,3-d]pyrimidin-4-ylamino)piperidin-1-yl)prop-2-en-1-one] | – | – | inhibition at 1 µM [1]: 1%; inhibition at 1 µM [2]: 0.4% |
| C=CC(=O)N1CCC[C@@H](Nc2nc(Nc3cnn(C)c3)nc3[nH]ccc23)C1 [Example 14, (R)-1-(3-(2-(1-methyl-1H-pyrazol-4-ylamino)-7H-pyrrolo[2,3-d]pyrimidin-4-ylamino)piperidin-1-yl)prop-2-en-1-one] | 19.2 | 1.1 | – |
| C=CC(=O)N1CCC[C@@H](Nc2nc(Nc3cnn(CC(F)F)c3)nc3[nH]ccc23)C1 [Example 15, (R)-1-(3-(2-(1-(2,2-difluoroethyl)-1H-pyrazol-4-ylamino)-7H-pyrrolo[2,3-d]pyrimidin-4-ylamino)piperidin-1-yl)prop-2-en-1-one] | 7.2 | 0.3 | – |
| C=CC(=O)N1CCC[C@@H](Nc2nc(Nc3cnn(C(F)F)c3)nc3[nH]ccc23)C1 [Example 16, (R)-1-(3-(2-(1-(difluoromethyl)-1H-pyrazol-4-ylamino)-7H-pyrrolo[2,3-d]pyrimidin-4-ylamino)piperidin-1-yl)prop-2-en-1-one] | 10.1 | 0.4 | – |
| C=CC(=O)N1CCC[C@@H](Nc2nc(Nc3cnn(CCOC)c3)nc3[nH]ccc23)C1 [Example 17, (R)-1-(3-(2-(1-(2-methoayethyl)-1H-pyrazol-4-ylamino)-7H-pyrrolo[2,3-d]pyrimidin-4-ylamino)piperidin-1-yl)prop-2-en-1-one] | 11.8 | 0.6 | – |
| C=CC(=O)N1CCC[C@@H](Nc2nc(Nc3cnn(CCN4CCOCC4)c3)nc3[nH]ccc23)C1 [Example 18, (R)-1-(3-(2-(1-(2-morpholinoethyl)-1H-pyrazol-4-ylamino)-7H-pyrrolo[2,3-d]pyrimidin-4-ylamino)piperidin-1-yl)prop-2-en-1-one] | 8.8 | 0.3 | – |
| C=CC(=O)N1CCC[C@@H](Nc2nc(Nc3cnn(CCN(CC)CC)c3)nc3[nH]ccc23)C1 [Example 19, (R)-1-(3-(2-(1-(2-(diethylamino)ethyl)-1H-pyrazol-4-ylamino)-7H-pyrrolo[2,3-d]pyrimidin-4-ylamino)piperidin-1-yl)prop-2-en-1-one] | 8.7 | 0.5 | – |
| C=CC(=O)N1CCC[C@@H](Nc2nc(Nc3cnn(Cc4cccc(OC)c4)c3)nc3[nH]ccc23)C1 [Example 20, (R)-1-(3-(2-(1-(3-methoxybenzyl)-1H-pyrazol-4-ylamino)-7H-pyrrolo[2,3-d]pyrimidin-4-ylamino)piperidin-1-yl)prop-2-en-1-one] | 9.5 | 0.7 | – |
| C=CC(=O)N1CCC[C@@H](Nc2nc(Nc3cnn(CC)c3)nc3[nH]ccc23)C1 [Example 21, (R)-1-(3-(2-(1-ethyl-1H-pyrazol-4-ylamino)-7H-pyrrolo[2,3-d]pyrimidin-4-ylamino)piperidin-1-yl)prop-2-en-1-one] | 4.5 | 0.4 | – |
| C=CC(=O)N1CCC[C@@H](Nc2nc(Nc3cn(C)nc3C)nc3[nH]ccc23)C1 [Example 22, (R)-1-(3-(2-(1,3-dimethyl-1H-pyrazol-4-ylamino)-7H-pyrrolo[2,3-d]pyrimidin-4-ylamino)piperidin-1-yl)prop-2-en-1-one] | – | – | inhibition at 0.1 µM [1]: 8.9%; inhibition at 0.1 µM [2]: 17.3% |
| C=CC(=O)N1CCC[C@@H](Nc2nc(Nc3cnoc3)nc3[nH]ccc23)C1 [Example 23, (R)-1-(3-(2-(isoxazol-4-ylamino)-7H-pyrrolo[2,3-d]pyrimidin-4-ylamino)piperidin-1-yl)prop-2-en-1-one] | 13.9 | 0.9 | – |
| C=CC(=O)N1CCC[C@@H](Nc2nc(Nc3cnn(CC(=O)NC)c3)nc3[nH]ccc23)C1 [Example 24, (R)-2-(4-(4-(1-acryloylpiperidin-3-ylamino)-7H-pyrrolo[2,3-d]pyrimidin-2-ylamino)-1H-pyrazol-1-yl)-N-methylacetamide] | 15.3 | 0.4 | – |
| CC#CC(=O)N1CCC[C@@H](Nc2nc(Nc3cnn(CC(F)F)c3)nc3[nH]ccc23)C1 [Example 25, (R)-1-(3-(2-(1-(2,2-difluoroethyl)-1H-pyrazol-4-ylamino)-7H-pyrrolo[2,3-d]pyrimidin-4-ylamino)piperidin-1-yl)but-2-yn-1-one] | – | 11.2 | inhibition at 0.1 µM [1]: 39.3% |
| C=CC(=O)Nc1cccc(Nc2nc(N[C@@H]3CCCN(C(=O)CC#N)C3)c3cc[nH]c3n2)c1 [Example 26, (R)-N-(3-(4-(1-(2-cyanoacetyl)piperidin-3-ylamino)-7H-pyrrolo[2,3-d]pyrimidin-2-ylamino)phenyl)acrylamide] | – | 39.2 | inhibition at 0.1 µM [1]: 10.3% |
| C=CC(=O)N1CC[C@@H](C)[C@@H](N(C)c2nc(Nc3ccc(N4CCN(C)CC4)cc3)nc3[nH]ccc23)C1 [Example 27, 1-((3R,4R)-4-methyl-3-(methyl(2-(4-(4-methylpiperazin-1-yl)phenylamino)-7H-pyrrolo[2,3-d]pyrimidin-4-yl)amino)piperidin-1-yl)prop-2-en-1-one] | – | – | inhibition at 1 µM [1]: 48%; inhibition at 1 µM [2]: 32.8% |
| C[C@@H]1CCN(C(=O)CC#N)C[C@@H]1N(C)c1nc(Nc2ccc(N3CCN(C)CC3)cc2)nc2[nH]ccc12 [Example 28, 3-((3R,4R)-4-methyl-3-(methyl(2-(4-(4-methylpiperazin-1-yl)phenylamino)-7H-pyrrolo[2,3-d]pyrimidin-4-yl)amino)piperidin-1-yl)-3-oxopropanenitrile] | – | 186 | inhibition at 1 µM [1]: 3.3% |
| C=CC(=O)NC1CCCC(Nc2nc(Nc3ccc(N4CCN(C)CC4)cc3)nc3[nH]ccc23)C1 (stereo not shown) [Example 29, N-(3-(2-(4-(4-methylpiperazin-1-yl)phenylamino)-7H-pyrrolo[2,3-d]pyrimidin-4-ylamino)cyclohexyl)acrylamide] | – | 66.2 | inhibition at 1 µM [1]: 47.1% |
| C=CC(=O)N1CCC[C@@H](Nc2nc(Nc3ccc(N4CCN(C)CC4)cc3)nc3[nH]ncc23)C1 [Example 30, (R)-1-(3-(6-(4-(4-methylpiperazin-1-yl)phenylamino)-1H-pyrazolo [3,4-d]pyrimidin-4-ylamino)piperidin-1-yl)prop-2-en-1-one] | 6 | – | inhibition at 0.1 µM [2]: 52.6% |
| C=CC(=O)N1CCC[C@@H](Nc2nc(Nc3cnn(CC(F)F)c3)nc3[nH]ncc23)C1 [Example 31, (R)-1-(3-(6-(1-(2,2-difluoroethyl)-1H-pyrazol-4-ylamino)-1H-pyrazolo [3,4-d]pyrimidin-4-ylamino)piperidin-1-yl)prop-2-en-1-one] | 2.2 | 3.4 | – |
| C=CC(=O)N1CCC[C@@H](Nc2nc(Nc3cnn(C)c3)nc3[nH]ncc23)C1 [Example 32, (R)-1-(3-(6-(1-methyl-1H-pyrazol-4-ylamino)-1H-pyrazolo[3,4-d]pyrimidin-4-ylamino)piperidin-1-yl)prop-2-en-1-one] | 2.8 | 10.7 | – |

From patent EP3478687B1 (Daewoong Pharmaceutical Co., Ltd., priority 2016, dated 2018)
